Legend:
Experiment in all cases: relative viability (nuclei count vs DMSO), 5 days (fraction); higher = more cells survive
Everolimus + Pictilisib = compound: CO[C@H]1C[C@@H]2CC[C@@H](C)[C@@](O)(O2)C(=O)C(=O)N2CCCC[C@H]2C(=O)O[C@H]([C@H](C)C[C@@H]2CC[C@@H](OCCO)[C@H](OC)C2)CC(=O)[C@H](C)/C=C(\C)[C@@H](O)[C@@H](OC)C(=O)[C@H](C)C[C@H](C)/C=C/C=C/C=C/1C [Everolimus] + CS(=O)(=O)N1CCN(Cc2cc3nc(-c4cccc5[nH]ncc45)nc(N4CCOCC4)c3s2)CC1 [Pictilisib] (partner 1 µM)
Procedure, shortened: (§1)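 Relative viability is defined as nuclei in treated wells over nuclei in vehicle wells. Duplicate plates were run and medians reported. Lung cancer cell lines in 1536-well plates were dosed by pin tool one day after seeding, with one drug or with a fixed anchor-drug dose plus five library-drug doses (not always all listed) in √10 steps, and nuclei were counted after 5 days.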

Everolimus + Alpelisib = compound: CO[C@H]1C[C@@H]2CC[C@@H](C)[C@@](O)(O2)C(=O)C(=O)N2CCCC[C@H]2C(=O)O[C@H]([C@H](C)C[C@@H]2CC[C@@H](OCCO)[C@H](OC)C2)CC(=O)[C@H](C)/C=C(\C)[C@@H](O)[C@@H](OC)C(=O)[C@H](C)C[C@H](C)/C=C/C=C/C=C/1C [Everolimus] + Cc1nc(NC(=O)N2CCC[C@H]2C(N)=O)sc1-c1ccnc(C(C)(C)C(F)(F)F)c1 [Alpelisib] (partner 2 µM)
Procedure, shortened: as §1

Everolimus + Phenformin = compound: CO[C@H]1C[C@@H]2CC[C@@H](C)[C@@](O)(O2)C(=O)C(=O)N2CCCC[C@H]2C(=O)O[C@H]([C@H](C)C[C@@H]2CC[C@@H](OCCO)[C@H](OC)C2)CC(=O)[C@H](C)/C=C(\C)[C@@H](O)[C@@H](OC)C(=O)[C@H](C)C[C@H](C)/C=C/C=C/C=C/1C [Everolimus] + N=C(N)NC(=N)NCCc1ccccc1 [Phenformin] (partner 250 µM)
Procedure, shortened: as §1

Everolimus + AZD7762 = compound: CO[C@H]1C[C@@H]2CC[C@@H](C)[C@@](O)(O2)C(=O)C(=O)N2CCCC[C@H]2C(=O)O[C@H]([C@H](C)C[C@@H]2CC[C@@H](OCCO)[C@H](OC)C2)CC(=O)[C@H](C)/C=C(\C)[C@@H](O)[C@@H](OC)C(=O)[C@H](C)C[C@H](C)/C=C/C=C/C=C/1C [Everolimus] + NC(=O)Nc1cc(-c2cccc(F)c2)sc1C(=O)N[C@H]1CCCNC1 [AZD7762] (partner 0.2 µM)
Procedure, shortened: as §1

Cell Line	relative viability (Everolimus + Pictilisib; first compound 0.01 µM)	relative viability (Everolimus + Pictilisib; first compound 0.03162 µM)	relative viability (Everolimus + Pictilisib; first compound 0.1 µM)	relative viability (Everolimus + Pictilisib; first compound 0.3162 µM)	relative viability (Everolimus + Pictilisib; first compound 1 µM)	relative viability (Everolimus + Alpelisib; first compound 0.01 µM)	relative viability (Everolimus + Alpelisib; first compound 0.03162 µM)	relative viability (Everolimus + Alpelisib; first compound 0.1 µM)	relative viability (Everolimus + Alpelisib; first compound 0.3162 µM)	relative viability (Everolimus + Alpelisib; first compound 1 µM)	relative viability (Everolimus + Phenformin; first compound 0.01 µM)	relative viability (Everolimus + Phenformin; first compound 0.03162 µM)	relative viability (Everolimus + Phenformin; first compound 0.1 µM)	relative viability (Everolimus + Phenformin; first compound 0.3162 µM)	relative viability (Everolimus + Phenformin; first compound 1 µM)	relative viability (Everolimus + AZD7762; first compound 0.01 µM)	relative viability (Everolimus + AZD7762; first compound 0.03162 µM)	relative viability (Everolimus + AZD7762; first compound 0.1 µM)	relative viability (Everolimus + AZD7762; first compound 0.3162 µM)	relative viability (Everolimus + AZD7762; first compound 1 µM)
NCI-H322M	0.445	0.445	0.352	0.429	0.397	0.686	0.577	0.578	0.585	0.58	0.647	0.658	0.629	0.714	0.701	0.473	0.39	0.481	0.397	0.43
NCI-H358	0.257	0.241	0.213	0.257	0.213	0.504	0.362	0.438	0.445	0.402	0.208	0.25	0.227	0.234	0.298	0.358	0.361	0.396	0.18	0.325
NCI-H441	0.272	0.358	0.296	0.282	0.331	0.515	0.575	0.582	0.564	0.461	0.798	0.605	0.585	0.772	0.666	0.97	1.17	0.717	0.953	1.01
NCI-H460	0.305	0.441	0.27	0.299	0.319	0.22	0.298	0.199	0.271	0.168	0.492	0.57	0.588	0.538	0.315	0.669	0.658	0.657	0.465	0.431
NCI-H596	0.313	0.337	0.348	0.354	0.333	0.386	0.297	0.347	0.382	0.37	0.494	0.505	0.396	0.513	0.554	0.945	0.726	0.609	0.665	0.674
NCI-H647	0.261	0.299	0.215	0.213	0.256	0.626	0.534	0.449	0.429	0.757	0.317	0.395	0.338	0.36	0.537	0.249	0.273	0.237	0.207	0.364
NCI-H650	0.688		0.498	0.569	0.505	1.05		0.752	0.592	0.587	0.423		0.431	0.364	0.294	0.711	0.737	0.755	0.531	0.69

Reference: the supplement of paper PMC10307832
